Data taken from patent US9505769B2 (ASCENEURON SA, priority 2013, dated 2016).

Biological target: T1, human muscarinic acetylcholine M1 receptor (Homo sapiens, UniProt P11229)
T1 construct: expressed in transfected cells; host or cells: CHO-K1
T1 sequence (P11229 1-460): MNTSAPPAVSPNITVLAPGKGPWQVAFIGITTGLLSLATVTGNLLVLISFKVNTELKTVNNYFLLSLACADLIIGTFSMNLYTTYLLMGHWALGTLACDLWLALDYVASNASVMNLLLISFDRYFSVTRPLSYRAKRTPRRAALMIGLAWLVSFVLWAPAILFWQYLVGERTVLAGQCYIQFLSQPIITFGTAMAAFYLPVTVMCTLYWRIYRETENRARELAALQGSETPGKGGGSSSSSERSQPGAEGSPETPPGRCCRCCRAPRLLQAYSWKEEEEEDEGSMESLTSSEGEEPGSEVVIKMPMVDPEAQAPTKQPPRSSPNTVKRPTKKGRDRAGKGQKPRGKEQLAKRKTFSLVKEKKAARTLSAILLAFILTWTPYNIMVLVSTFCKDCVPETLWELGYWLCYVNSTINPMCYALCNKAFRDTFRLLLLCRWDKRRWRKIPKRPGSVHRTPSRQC
Assay: M1 PAM Assay (IP-One HTRF, IP1 accumulation in M1-CHO cells)
Assay type: cell-based
Details: CHO-K1 cells stably transfected with human M1 receptor; compounds added with EC20 of acetylcholine (25 nM), 30 min; intracellular IP1 by IP-One HTRF; read-out: M1 PAM EC50
Protocol: Then diluted compounds (0.6% DMSO final concentration) are added together with EC20 of acetylcholine and incubated with the cells for 30 min at 37° C., 5% CO2.
CHO-K1 cells stably transfected with human muscarinic acetylcholine M1 receptor are cultured in Ham's F12 medium containing 10% heat inactivated fetal calf serum, 2 mM L-glutamine and Penicillin-Streptomycin grown in a humidified atmosphere at 5% CO2/95% air at 37° C.

Row | Substance | EC50 [nM]
1 | (3-chloro-4-ethyl-2-methyl-7H-pyrrolo[3′,4′:3,4]pyrazolo[1,5-a]pyrimidin-8(9H)-yl)(2-((4-hydroxytetrahydrofuran-3-yl)oxy)phenyl)methanone or (3-chloro-2-ethyl-4-methyl-7H-pyrrolo[3′,4′:3,4]pyrazolo[1,5-a]pyrimidin-8(9H)-yl)(2-((4-hydroxytetrahydrofuran-3-yl)oxy)phenyl)methanone [Example 22] | 1000 to 3000
2 | (anti)-(6-Chloro-5-ethyl-7-methyl-1H,3H-2,4,7a,8-tetraaza-cyclopenta[a]inden-2-yl)-[2-(4-hydroxy-pyrrolidin-3-yl oxy)-phenyl]-methanone or (anti)-(6-Chloro-5-methyl-7-ethyl-1H,3H-2,4,7a,8-tetraaza-cyclopenta[a]inden-2-yl)-[2-(4-hydroxy-pyrrolidin-3-yl oxy)-phenyl]-methanone [Example 10] | 200 to 1000
3 | (syn)-(6-Chloro-5,7-dimethyl-1H,3H-2,4,7a,8-tetraaza-cyclopenta[a]inden-2-yl)-[4-fluoro-2-(4-fluoro-cyclohexyloxy)-phenyl]-methanone or (anti)-(6-Chloro-5,7-dimethyl-1H,3H-2,4,7a,8-tetraaza-cyclopenta[a]inden-2-yl)-[4-fluoro-2-(4-fluoro-cyclohexyloxy)-phenyl]-methanone [Example 54] | 1000 to 3000
